From publication PMC6914219 (European journal of pharmacology, 2019)

System: Caco-2 monolayers

With lucifer yellow the Papp was less than 1e+12 ×10⁻⁶ cm/s.
